{
  "source": "patent US8940909B2",
  "about": "“Indicator platform” (Biosynth AG, priority 2009, dated 2015)",
  "key": {"[1]": {"tested_on": "beta-galactosidase positive Eschericha coli (NM1)", "experiment": "IO staining of bacterial colonies on Nutrient Agar (color, fluorescence, localization, growth); as to C: Color of colonies (strength): key: −: absent; +/−: weak; +: strong; ++: very strong; as to F: Fluorescence of colonies (strength): key: −: absent; +/−: weak; +: strong; ++: very strong; as to G: Growth of colonies: key: −: absent; +/−: weak; +: strong; ++: very strong; as to L: Localization of stain on colonies: key: −: absent; +/−: weak; +: strong; ++: very strong", "format": "cell-based, E. coli", "conditions": "150 mg/l substrate and 100 mg/l IPTG; for F: Fluorescence of colonies (colour) / G: Growth of colonies / L: Localization of stain on colonies / F: Fluorescence of colonies (strength): 24 h; for F: Fluorescence of colonies (colour) / F: Fluorescence of colonies (strength): 366 nm UV; for C: Color of colonies (colour of stain) / C: Color of colonies (strength): 24 h on Nutrient Agar; for G: Growth of colonies / L: Localization of stain on colonies / F: Fluorescence of colonies (strength) / C: Color of colonies (strength): E. coli", "method": "(§1) Nutrient Agar (5 g/l peptone, 5 g/l NaCl, 2 g/l yeast extract, 1 g/l beef extract, 13 g/l agar, pH 7.4) was autoclaved and allowed to cool to 50° C. Then indicators were added to final concentrations of 150 mg/l (from a 20 mg/ml stock solution in DMF).\n(§2) Optionally IPTG was added to 100 mg/l (from a 100 mg/ml stock solution in H2O) and plates were poured. Agar plates were inoculated with cultures of beta-galactosidase positive Eschericha coli (NM1) or beta-galactosidase negative Salmonella enteritidis (RKI 05/07992) (pre-grown on nutrient broth for 8-18 hours) and incubated at 37° C. Plates were inspected at 16, 20, 24 and 48 hours and pictures were recorded at 18, 24, and 48 hours with a Digistore 2 Image documentation system (CAMAG) under white light.\n(§3) A considerable number of indicators molecules (Table IVa, IVb) and a selection of labile groups (Table IVc) were tested with various microbial species producing different biomarker enzymes (external stimuli, eS). The color of stains ranges from yellow to red.\n(§4) Plating media from Example 10 were examined under 366 nm UV irradiation at 16, 20, 24 and 48 hours for fluorescence by means of Digistore 2 Image documentation system (CAMAG). Loops of bacterial cells, grown for 48 hours on Nutrient Agar plates containing 150 mg/l beta-D-galactosidase indicator and 100 mg/l IPTG, were directly streaked into wells of black clear bottom microtiter plates. Fluorescence scans were recorded on a Spectramax M5 (Molecular Devices)."}, "[2]": {"tested_on": "beta-galactosidase negative Salmonella enteritidis (RKI 05/07992)", "format": "cell-based", "conditions": "S. enteritidis (b-gal negative), 24 h, 150 mg/l substrate and 100 mg/l IPTG; for F: Fluorescence of colonies (strength): 366 nm UV", "method": "as §1, §2, §3, §4"}},
  "data": [
    {"smiles": "COc1ccc(C(=O)c2ccccc2)c(-n2cc(O[C@@H]3O[C@H](CO)[C@H](O)[C@H](O)[C@H]3O)c3ccc(Cl)cc32)c1", "note": "[Indicator I24a, 1-(2-Benzoyl-5-methoxyphenyl)-6-chloro-1H-indol-3-yl-beta-D-galactopyranoside]", "values": [
      {"measurement": "F: Fluorescence of colonies (colour)", "setting": "[1]", "result": "yellow-green"},
      {"measurement": "C: Color of colonies (colour of stain)", "setting": "[1]", "result": "dark yellow"},
      {"measurement": "G: Growth of colonies", "setting": "[1]", "result": "+"},
      {"measurement": "L: Localization of stain on colonies", "setting": "[1]", "result": "+/−"},
      {"measurement": "F: Fluorescence of colonies (strength)", "setting": "[1]", "result": "+"},
      {"measurement": "C: Color of colonies (strength)", "setting": "[1]", "result": "+"},
      {"measurement": "C: Color of colonies (strength)", "setting": "[2]", "result": "−"},
      {"measurement": "F: Fluorescence of colonies (strength)", "setting": "[2]", "result": "−"}
    ]},
    {"smiles": "O=C(c1ccccc1)c1ccccc1-n1cc(O[C@@H]2O[C@H](CO)[C@H](O)[C@H](O)[C@H]2O)c2ccccc21", "note": "[Indicator I19a, 1-(2-Benzoylphenyl)-1H-indol-3-yl-beta-D-galactopyranoside]", "values": [
      {"measurement": "F: Fluorescence of colonies (colour)", "setting": "[1]", "result": "yellow"},
      {"measurement": "C: Color of colonies (colour of stain)", "setting": "[1]", "result": "yellow-orange"},
      {"measurement": "G: Growth of colonies", "setting": "[1]", "result": "+"},
      {"measurement": "L: Localization of stain on colonies", "setting": "[1]", "result": "+"},
      {"measurement": "F: Fluorescence of colonies (strength)", "setting": "[1]", "result": "+"},
      {"measurement": "C: Color of colonies (strength)", "setting": "[1]", "result": "+"},
      {"measurement": "C: Color of colonies (strength)", "setting": "[2]", "result": "−"},
      {"measurement": "F: Fluorescence of colonies (strength)", "setting": "[2]", "result": "−"}
    ]},
    {"smiles": "O=C(O)c1ccc(C(=O)c2ccccc2-n2cc(O[C@@H]3O[C@H](CO)[C@H](O)[C@H](O)[C@H]3O)c3ccc(Cl)cc32)o1", "note": "[Indicator I29a, 1-[2-(5-Carboxylfuranoyl)phenyl]-6-chloro-1H-indol-3-yl-beta-D-galactopyranoside]", "values": [
      {"measurement": "C: Color of colonies (colour of stain)", "setting": "[1]", "result": "red"},
      {"measurement": "G: Growth of colonies", "setting": "[1]", "result": "+"},
      {"measurement": "L: Localization of stain on colonies", "setting": "[1]", "result": "−"},
      {"measurement": "F: Fluorescence of colonies (strength)", "setting": "[1]", "result": "−"},
      {"measurement": "C: Color of colonies (strength)", "setting": "[1]", "result": "+"},
      {"measurement": "C: Color of colonies (strength)", "setting": "[2]", "result": "−"},
      {"measurement": "F: Fluorescence of colonies (strength)", "setting": "[2]", "result": "−"}
    ]},
    {"smiles": "O=Cc1ccccc1-n1cc(O[C@@H]2O[C@H](CO)[C@H](O)[C@H](O)[C@H]2O)c2ccccc21", "note": "[Indicator I13a, 1-(2-Formylphenyl)-1H-indol-3-yl-beta-D-galactopyranoside]", "values": [
      {"measurement": "C: Color of colonies (colour of stain)", "setting": "[1]", "result": "cream-orange"},
      {"measurement": "G: Growth of colonies", "setting": "[1]", "result": "+"},
      {"measurement": "L: Localization of stain on colonies", "setting": "[1]", "result": "+"},
      {"measurement": "F: Fluorescence of colonies (strength)", "setting": "[1]", "result": "−"},
      {"measurement": "C: Color of colonies (strength)", "setting": "[1]", "result": "+/−"},
      {"measurement": "C: Color of colonies (strength)", "setting": "[2]", "result": "−"},
      {"measurement": "F: Fluorescence of colonies (strength)", "setting": "[2]", "result": "−"}
    ]},
    {"smiles": "CC(=O)c1ccccc1-n1cc(O[C@@H]2O[C@H](CO)[C@H](O)[C@H](O)[C@H]2O)c2ccccc21", "note": "[Indicator I14a, 1-(2-Acetylphenyl)-1H-indol-3-yl-beta-D-galactopyranoside]", "values": [
      {"measurement": "C: Color of colonies (colour of stain)", "setting": "[1]", "result": "light yellow"},
      {"measurement": "G: Growth of colonies", "setting": "[1]", "result": "+"},
      {"measurement": "L: Localization of stain on colonies", "setting": "[1]", "result": "+"},
      {"measurement": "F: Fluorescence of colonies (strength)", "setting": "[1]", "result": "−"},
      {"measurement": "C: Color of colonies (strength)", "setting": "[1]", "result": "+"},
      {"measurement": "C: Color of colonies (strength)", "setting": "[2]", "result": "−"},
      {"measurement": "F: Fluorescence of colonies (strength)", "setting": "[2]", "result": "−"}
    ]},
    {"smiles": "O=C(c1ccccc1)c1ccc(Cl)cc1-n1cc(O[C@@H]2O[C@H](CO)[C@H](O)[C@H](O)[C@H]2O)c2ccc(Cl)cc21", "note": "[Indicator I23a, 1-(2-Benzoyl-5-chlorophenyl)-6-chloro-1H-indol-3-yl-beta-D-galactopyranoside]", "values": [
      {"measurement": "F: Fluorescence of colonies (colour)", "setting": "[1]", "result": "green-yellow"},
      {"measurement": "C: Color of colonies (colour of stain)", "setting": "[1]", "result": "yellow"},
      {"measurement": "G: Growth of colonies", "setting": "[1]", "result": "+"},
      {"measurement": "L: Localization of stain on colonies", "setting": "[1]", "result": "+"},
      {"measurement": "F: Fluorescence of colonies (strength)", "setting": "[1]", "result": "+"},
      {"measurement": "C: Color of colonies (strength)", "setting": "[1]", "result": "+"}
    ]}
  ]
}
